Experimental data reported in patent publication US20110112282A1, “IDO INHIBITORS AND THERAPEUTIC USES THEREOF” (priority 2008, published 2011).

Molecular target: purified recombinant IDO (Homo sapiens, UniProt P14902)
Assay: Enzymatic IDO inhibition assay (Takikawa et al., modified; kynurenine by HPLC)
Format: biochemical
Conditions: result in words; oxidized dimeric analogues
Experimental: The enzymatic inhibition assays were performed as described by Takikawa et al. [Takikawa, O.; Kuroiwa, T.; Yamazaki, F.; Kido, R. J Biol Chem, 1988, 263, 2041-2048.] with some modifications. Briefly, the reaction mixture (100 μl) contained potassium phosphate buffer (100 mM, pH 6.5) ascorbic acid (20 mM), catalase (200 units/ml), methylene blue (10 μM), purified recombinant IDO (2 ng/μl), and L-Trp (200 μM). The inhibitors were serially diluted ranging from 0.1 to 1000 μM. The reaction was carried out at 37° C. for 60 min and stopped by the addition of 30% (w/v) trichloroacetic acid (40 μl). To convert the product of Trp dioxygenation by IDO, N-formylkynurenine, to spectroscopically detectable kynurenine, the tubes were incubated at 50° C. for 30 min, followed by a centrifugation at 10000 g for 20 min. Lastly, 100 μl of supernatant from each probe was transfered to another tube for HPLC analysis. The mobile phase for HPLC measurements consisted of 50% sodium citrate buffer (40 mM, pH 2.25) and 50% methanol with 400 μM SDS. The flow rate through the S5-ODS1 column was chosen to be 1 ml/min, and kynurenine was detected at a wavelength of 365 nm.

Sequence of purified recombinant IDO (P14902 whole entry): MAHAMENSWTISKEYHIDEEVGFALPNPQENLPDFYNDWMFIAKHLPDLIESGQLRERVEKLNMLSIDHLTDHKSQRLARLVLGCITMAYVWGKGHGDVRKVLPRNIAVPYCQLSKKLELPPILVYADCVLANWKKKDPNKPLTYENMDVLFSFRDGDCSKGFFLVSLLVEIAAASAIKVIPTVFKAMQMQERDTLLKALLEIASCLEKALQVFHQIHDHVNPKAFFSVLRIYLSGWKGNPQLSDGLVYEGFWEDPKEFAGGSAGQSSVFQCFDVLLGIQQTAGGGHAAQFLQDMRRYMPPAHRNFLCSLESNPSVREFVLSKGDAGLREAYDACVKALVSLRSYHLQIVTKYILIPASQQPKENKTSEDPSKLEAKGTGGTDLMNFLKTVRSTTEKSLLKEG

| activity in vitro | Compound |
| --- | --- |
| excellent activity | CC(C)/C=C1/C=C(C2=C/C(=N\C(C)C)c3ccccc3C2=O)C(=O)c2ccccc21 [Example 23] |
| excellent activity | CCC(CC)CC1C=C(C2=CC(CC(CC)CC)c3ccccc3C2=O)C(=O)c2ccccc21 (centres unmarked) [Example 24] |
